Values belong to the compound of their own block, whether it stands above or below them. Where no end group is shown, it is not given here.
Assays:
[1] = biological target: T1, membranes of SK-N-MC cells, which express the CGRP receptor (Homo sapiens, UniProt O60894+Q16602); settings: read-out: IC50 reported for binding to membranes of SK-N-MC cells; cited from earlier work
T1 construct: membranes of SK-N-MC cells, which express the CGRP receptor; host or cells: SK-N-MC cell membranes (endogenous receptor)

RAMP2-CLR ECD = biological target: T2, RAMP2-CLR ECD (Homo sapiens, UniProt O60895+Q16602, L106R); assay: AlphaLISA/AlphaScreen competition peptide binding assay, AM1 receptor ECD complex
T2 construct: MBP-hRAMP2.55-140 [L106R]-(Gly-Ser-Ala)3-hCLR.29-144-H6; made in house; host or cells: E. coli
Protocol: Protein production and characterization and peptides. Plasmid construction, mutagenesis, protein expression, purification, and the AlphaScreen® peptide binding assay (Perkin-Elmer, Waltham, Mass.) were performed as previously described with minor modifications to the AlphaScreen® assay (Hill and Pioszak, Protein expression and purification (2013) 88:107-113; and Moad and Pioszak, Protein Sci. (2013) 22:1775-85). Synthetic peptides were from RS Synthesis (Louisville, Ky.), Bachem (Bubendorf, Switzerland), or were synthesized in-house. […]
FIG. 1 depicts in (B) binding of an AM C-terminal peptide, AM(37-52)NH2, and the two variant AM C-terminal peptides to purified AM1 receptor extracellular domain complex (CLR:RAMP2). The ability of the indicated peptides to displace a Biotin-CGRP probe (50 nM) from purified MBP-RAMP1 ECD-(GS)5-CTR ECD-H6 fusion protein (5 nM) or a Biotin-AM probe (25 nM) from purified MBP-RAMP2 ECD [L106R]-(GS)5-[…] ECD-H6 fusion protein (5 nM) was assessed by AlphaLISA® luminescent peptide binding assay (Perkin-Elmer, Waltham, Mass.). […] The reactions were incubated for 5 hours at room temperature to reach equilibrium, and the luminescence was measured in white 384-well plates using a BMG LABTECH's POLARstar Omega plate reader (Ortenberg, Germany). […]

[2] = biological target: T3, RAMP1-CLR ECD (CGRP); purified MBP-RAMP1 ECD-(GS)5-CLR ECD-H6 fusion protein (Homo sapiens, UniProt O60894+Q16602); assay: Fluorescence polarization (FP) peptide binding competition assay, CGRP receptor ECD complex; settings: for Receptor Selectivity (in words): CGRP vs AM1 receptor ECD complexes; for Receptor Selectivity (in words) / Receptor Selectivity, fold for CGRP: FP assay; for Ki: RAMP1-CLR ECD (CGRP) KI (nM), FP competition, FITC-AM W/W probe 7 nM, fusion protein 15 nM; for Receptor Selectivity, fold for CGRP: CGRP (RAMP1-CLR ECD) over AM1 (RAMP2-CLR ECD)
T3 construct: MBP-hRAMP1.24-111-(Gly-Ser)5-hCLR.29-144-H6; made in house; host or cells: E. coli
Protocol: Fluorescence polarization peptide binding assay. […] The reactions (50 μL) were incubated for 2 hours at room temperature to reach equilibrium, and the anisotropy was measured in black half-area 96-well plates using a BMG LABTECH's POLARstar® Omega plate reader (Ortenberg, Germany). The reaction buffer was 50 mM HEPES, pH 7.5, 150 mM NaCl, 0.5 mg/ml fatty acid-free BSA, 0.5 mM EDTA, 0.5 mM maltose. Ki values were calculated using nonlinear regression fitting of the competition curves to the exact analytical equations of Roehrl et al. (Biochemistry (2004) 43:16056-66) using GraphPad Prism 5.0 (GraphPad Software, San Diego Calif.).
(§1) The ability of the indicated peptides to displace a FITC-Ahx-AM(37-52)NH2 [S45W, Q50W] probe (7 nM) from purified MBP-RAMP1 ECD-(GS)5-CLR ECD-H6 fusion protein (15 nM) was assessed by fluorescence polarization (anisotropy). The reactions were incubated for 2 hours at room temperature to reach equilibrium, and the anisotropy was measured in black half-area 96-well plates using a BMG LABTECH's POLARstar® Omega plate reader (Ortenberg, Germany). The reaction buffer was 50 mM HEPES, pH 7.5, 150 mM NaCl, 0.5 mg/ml fatty acid-free BSA, 0.5 mM EDTA, 0.5 mM maltose. KI values were calculated using nonlinear regression fitting of the competition curves to the exact analytical equations of Roehrl et al. (Biochemistry (2004) 43:16056-66) using GraphPad Prism 5.0 (GraphPad Software, San Diego Calif.).
as §1, with “Single representative experiments conducted with duplicate samples are shown. Error bars are S.E.M. The ability” for “The ability”, “displace a FITC-Ahx-AM(37-52)NH2[S45W, Q50W] probe” for “displace a FITC-Ahx-AM(37-52)NH2 [S45W, Q50W] probe”
A fluorescence polarization/anisotropy (FP) peptide-binding assay was developed using N-terminally FITC-labeled AM(37-52) S45W/Q50W as the probe, hereafter “FITC-AM W/W.” The probe was custom synthesized and HPLC-purified by RS Synthesis. The large size difference between the MBP-RAMP ECD-CLR ECD fusion proteins (˜65 kDa) and the probe (˜2.5 kDa) ensures a significant anisotropy difference between bound and free states of the probe. […] Kd values for the probe at each of the tethered ECD fusion proteins were determined in equilibrium saturation binding experiments (data not shown), and KI values were determined for unlabeled peptides in equilibrium competition experiments (Table 1; FIGS. 2-5). The data were analyzed according to exact analytical equations using non-linear regression curve fitting in GraphPad Prism 5.0 (GraphPad Software) via user-defined equations.

[3] = biological target: T4, AMY1 receptor extracellular domain complex; purified MBP-RAMP1 ECD-(GS)5-CTR ECD-H6 fusion protein (Homo sapiens, UniProt O60894+P30988); assay: AlphaLISA luminescent peptide binding assay, AMY1 receptor ECD complex; settings: displacement of Biotin-AC413 probe (100 nM), fusion protein 200 nM
T4 construct: purified MBP-RAMP1 ECD-(GS)5-CTR ECD-H6 fusion protein (200 nM); made in house; host or cells: HEK293T
Protocol: A single representative experiment conducted with duplicate samples is shown. Error bars are S.E.M. The ability of the indicated peptides to displace a Biotin-AC413 probe (100 nM) from purified MBP-RAMP1 ECD-(GS)5-CTR ECD-H6 fusion protein (200 nM) was assessed by AlphaLISA® luminescent peptide binding assay (Perkin-Elmer, Waltham, Mass.) as described in Lee et al. (J Biol. Chem (2016) 291:8686-8700). The reactions were incubated for 5 hours at room temperature to reach equilibrium, and the luminescence was measured in white 384-well plates using a BMG LABTECH's POLARstar® Omega plate reader (Ortenberg, Germany). The reaction buffer was 50 mM MOPS, pH 7.4, 150 mM NaCl, 7 mg/ml fatty acid-free BSA and the streptavidin-coated donor beads and MBP-antibody coated acceptor beads were at 15 μg/ml each. IC50 values were calculated using nonlinear regression fitting of the competition curves to a three-parameter, one-site competitive binding equation in GraphPad Prism 5.0 (GraphPad Software, San Diego Calif.).

[4] = biological target: T5, full-length CGRP (RAMP1:CLR) receptor transiently expressed in COS-7 cells (Homo sapiens, UniProt O60894+Q16602); assay: Antagonism of CGRP-activated cAMP signaling in COS-7 cells; type: cell-based
T5 construct: Plasmids for expression of tagged full-length CLR and RAMP1 or RAMP2 receptors in mammalian cells were previously described; expressed in transfected cells; host or cells: COS-7
Protocol: (§2) Cell-based assays. Transfection of COS-7 cells, cAMP assay, ELISA for cell surface expression, and data analysis were as previously described (Barwell et al., Peptides (2010) 31:170-176; Watkins et al., Br J Pharmacol (2014) 171:772-788).
(§3) A single representative experiment conducted with duplicate samples is shown. Error bars are S.E.M. The experiments were performed as described in Lee et al. (J Biol. Chem (2016) 291:8686-8700). […] (B) depicts antagonism of AM-activated cAMP signaling at the AM1 receptor.
(§4) Forty-eight hours after transfection, the cells were pre-incubated for 30 minutes in the absence or presence of 500 nM AM(37-52)NH2 [S45W/K46L/Q50W/Y52F], and then stimulated for 15 minutes with increasing concentrations of agonist peptide in the absence or presence of 500 nM antagonist. The cells were lysed, and cAMP was quantitated using a LANCE TR-FRET cAMP kit (Perkin-Elmer Waltham, Mass.).

[5] = biological target: T6, full-length AM1 (RAMP2:CLR) receptor transiently expressed in COS-7 cells (Homo sapiens, UniProt O60895+Q16602); assay: Antagonism of AM-activated cAMP signaling in COS-7 cells; type: cell-based; settings: 500 nM antagonist
T6 construct: Plasmids for expression of tagged full-length CLR and RAMP1 or RAMP2 receptors in mammalian cells were previously described; expressed in transfected cells; host or cells: COS-7
Protocol: as §2, §3, §4

Compound: CC(C)[C@H](NC(=O)[C@H](CC(=O)O)NC(=O)[C@@H](NC(=O)[C@@H]1CCCN1C(=O)[C@@H](NC(=O)[C@@H](N)Cc1ccccc1)C(C)C)[C@@H](C)O)C(=O)NCC(=O)N1CCC[C@H]1C(=O)N[C@@H](Cc1ccccc1)C(=O)N[C@@H](C)C(=O)N[C@@H](Cc1ccccc1)C(N)=O [CGRPmut [N31D/S34P/K35F]]
- IC50 [1]: 29 nM

- IC50 (RAMP2-CLR ECD; read-out: IC50 in AlphaLISA or AlphaScreen competition assays, RAMP2-CLR ECD): 5000 to 15000 nM
- Receptor Selectivity (in words) [2]: AM1 over CGRP
- Ki [2]: > 100000 nM
Compound: DKDNVAPRSKISPQGY-NH2 [WT, reference compound]

- fold increased affinity for RAMP2-CLR ECD (RAMP2-CLR ECD; competition assays, relative to AM(37-52)NH2): ~100 fold
- Receptor Selectivity (in words) [2]: Non-selective
- Ki [2]: 501 nM
Compound: DKDNVAPRSKISPWGY-NH2 [Peptide Q50W]

Compound: DKDNVAPRWLISPWGF-NH2 [S45W/K46L/Q50W/Y52F]
- IC50 [3]: 16000 nM
- Kb [4]: 10.5 nM
- pA2, antagonism of CGRP-activated cAMP signaling at the CGRP receptor ([4]; 500 nM antagonist, COS-7 cells, Gaddum/Schild EC50 shift, slopes constrained to 1): ~8
- affinity for the intact CGRP receptor suggested by pA2 ([4]; COS-7 cells): ~10 nM
- Receptor Selectivity, fold for CGRP [2]: 2131-fold for CGRP
- Receptor Selectivity, fold for CGRP ([2]; listed as AM(37-52)NH2 [S45W/K46L/Q50W/Y52F]): > 2000 fold
- Ki [2]: 1.91 nM
- antagonism of the AM1 receptor (cAMP) [5]: did not antagonize the AM1 receptor
